Measured values reported in patent US12617795B2, “Substituted 6,7-dihydro-5H-pyrrolo[3,4-d]pyrimidines, 5,7-dihydrofuro[3,4-d]pyrimidines, and pyrido[2,3-d]pyrimidines as KCC2 modulators” (Astrazeneca AB, priority 2020, dated 2026).

Molecular target: T1, KCC2 (Homo sapiens, UniProt Q9H2X9)
T1 construct: expressed in transfected cells; host or cells: HEK293 cells electroporated (Maxcyte STX) with the pcDNA3.1 KCC2 plasmid
T1 sequence (Q9H2X9 1-1139): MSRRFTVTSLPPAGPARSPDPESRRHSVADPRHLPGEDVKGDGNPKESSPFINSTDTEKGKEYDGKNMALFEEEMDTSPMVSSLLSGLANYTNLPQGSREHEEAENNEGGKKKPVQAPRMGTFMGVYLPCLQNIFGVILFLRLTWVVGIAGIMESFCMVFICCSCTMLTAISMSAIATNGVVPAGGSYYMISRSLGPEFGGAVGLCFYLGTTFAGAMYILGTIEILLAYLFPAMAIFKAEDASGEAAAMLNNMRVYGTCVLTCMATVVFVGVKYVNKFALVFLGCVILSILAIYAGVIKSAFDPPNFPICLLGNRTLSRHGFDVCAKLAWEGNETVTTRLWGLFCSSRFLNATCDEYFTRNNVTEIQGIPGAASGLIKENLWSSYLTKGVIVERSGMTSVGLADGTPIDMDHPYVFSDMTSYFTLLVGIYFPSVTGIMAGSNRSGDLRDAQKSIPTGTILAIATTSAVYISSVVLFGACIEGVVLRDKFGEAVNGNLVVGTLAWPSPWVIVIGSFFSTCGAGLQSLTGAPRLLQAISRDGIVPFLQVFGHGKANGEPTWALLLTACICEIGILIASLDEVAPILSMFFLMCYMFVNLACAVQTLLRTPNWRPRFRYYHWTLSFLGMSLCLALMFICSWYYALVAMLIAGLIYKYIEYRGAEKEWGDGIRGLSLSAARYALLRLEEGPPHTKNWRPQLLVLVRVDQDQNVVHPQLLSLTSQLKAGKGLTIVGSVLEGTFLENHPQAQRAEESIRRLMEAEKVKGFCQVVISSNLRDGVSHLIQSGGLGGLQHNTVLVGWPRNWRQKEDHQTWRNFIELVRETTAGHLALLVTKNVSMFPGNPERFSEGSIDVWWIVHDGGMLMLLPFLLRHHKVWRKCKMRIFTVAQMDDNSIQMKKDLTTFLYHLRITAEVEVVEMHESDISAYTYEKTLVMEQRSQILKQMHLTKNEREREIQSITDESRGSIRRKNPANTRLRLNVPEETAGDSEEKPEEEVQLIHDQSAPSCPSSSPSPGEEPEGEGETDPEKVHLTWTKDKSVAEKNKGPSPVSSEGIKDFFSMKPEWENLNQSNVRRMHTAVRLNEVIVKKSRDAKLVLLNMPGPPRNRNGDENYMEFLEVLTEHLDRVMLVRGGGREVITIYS
Test: KCC2 thallium transport FLIPR-based assay (Tl+ influx in HEK293 cells expressing KCC2)
Assay type: cell-based
Settings: 90 min compound incubation at RT, thallium flux at 120 s used to determine EC50
In short: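 Transient electroporation of codon-optimised human KCC2 into HEK293 cells, plated and cultured 48 h before dye loading (1 h, RT). Compounds run as a 12-point 1:2 series from 100 μM top, 90 min RT in buffer containing bumetanide; Tl+ flux read by FLIPR after stimulus addition, 1 s intervals over 120 s, with the 120 s signal used for EC50.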

Structure (SMILES)	EC50
C#CCCC1(CCOc2ccc(-c3ccc(Nc4nc(C5=CCOCC5)nc5c4CN(C(C)C)C5=O)cc3)cc2)N=N1 [Example 81, 4-((4′-(2-(3-(but-3-yn-1-yl)-3H-diazirin-3-yl)ethoxy)-[1,1′-biphenyl]-4-yl)amino)-2-(3,6-dihydro-2H-pyran-4-yl)-6-isopropyl-5,6-dihydro-7H-pyrrolo[3,4-d]pyrimidin-7-one]	2470 nM
CC(C)N1Cc2c(Nc3ccc(-c4ccccc4)c(F)c3)nc(C3=CCOCC3)nc2C1=O [Example 82, 2-(3,6-dihydro-2H-pyran-4-yl)-4-((2-fluoro-[1,1′-biphenyl]-4-yl)amino)-6-isopropyl-5,6-dihydro-7H-pyrrolo[3,4-d]pyrimidin-7-one]	2290 nM
CC(C)N1Cc2c(Nc3ccc(C(F)(F)C(F)(F)F)cc3)nc(N3CCOCC3)nc2C1=O [Example 83, 2-(morpholin-4-yl)-4-{[4-(pentafluoroethyl)phenyl]amino}-6-(propan-2-yl)-5,6-dihydro-7H-pyrrolo[3,4-d]pyrimidin-7-one]	3880 nM
CC(C)N1Cc2c(Nc3ccc(-c4ccccc4)c(F)c3)nc(N3CCOCC3)nc2C1=O [Example 84, 4-[(2-fluoro[1,1′-biphenyl]-4-yl)amino]-2-(morpholin-4-yl)-6-(propan-2-yl)-5,6-dihydro-7H-pyrrolo[3,4-d]pyrimidin-7-one]	2090 nM
CC(C)N1Cc2c(Nc3ccc(-c4ccc(Cl)c(Cl)c4)cc3)nc(N3CCOCC3)nc2C1=O [Example 85, 4-[(3′,4′-dichloro[1,1′-biphenyl]-4-yl)amino]-2-(morpholin-4-yl)-6-(propan-2-yl)-5,6-dihydro-7H-pyrrolo[3,4-d]pyrimidin-7-one]	8410 nM
CC(C)c1ccc(Nc2nc(N3CCOCC3)nc3c2CN(C(C)C)C3=O)cc1 [Example 86, 2-(morpholin-4-yl)-6-(propan-2-yl)-4-{[4-(propan-2-yl)phenyl]amino}-5,6-dihydro-7H-pyrrolo[3,4-d]pyrimidin-7-one]	5830 nM
CC(C)N1Cc2c(Nc3ccc(C(C)(C)C)cc3)nc(N3CCOCC3)nc2C1=O [Example 87, 4-[(4-tert-butylphenyl)amino]-2-(morpholin-4-yl)-6-(propan-2-yl)-5,6-dihydro-7H-pyrrolo[3,4-d]pyrimidin-7-one]	8180 nM
Cc1cc(Nc2nc(N3CCOCC3)nc3c2CN(C(C)C)C3=O)ccc1-c1ccccc1 [Example 88, 4-[(2-methyl[1,1′-biphenyl]-4-yl)amino]-2-(morpholin-4-yl)-6-(propan-2-yl)-5,6-dihydro-7H-pyrrolo[3,4-d]pyrimidin-7-one]	3520 nM
CC(C)N1Cc2c(Nc3ccc(-c4ccc(Cl)cc4)cc3)nc(N3CCOCC3)nc2C1=O [Example 89, 4-[(4′-chloro[1,1′-biphenyl]-4-yl)amino]-2-(morpholin-4-yl)-6-(propan-2-yl)-5,6-dihydro-7H-pyrrolo[3,4-d]pyrimidin-7-one]	3510 nM
C[C@@H]1CN(c2nc3c(c(Nc4ccc(C5CCCCC5)cc4)n2)COC3)CCO1 [Example 90, (R)—N-(4-cyclohexylphenyl)-2-(2-methylmorpholino)-5,7-dihydrofuro[3,4-d]pyrimidin-4-amine]	1710 nM
C1=C(c2nc3c(c(Nc4ccc(C5CCC5)cc4)n2)COC3)CCOC1 [Example 91, N-(4-cyclobutylphenyl)-2-(3,6-dihydro-2H-pyran-4-yl)-5,7-dihydrofuro[3,4-d]pyrimidin-4-amine]	9920 nM
c1cc(C2CCCCC2)ccc1Nc1nc(N2CCOC(C3CC3)C2)nc2c1COC2 (centres unmarked) [Example 92, N-(4-cyclohexylphenyl)-2-(2-cyclopropyl-morpholin-4-yl)-5,7-dihydrofuro[3,4-d]pyrimidin-4-amine]	2370 nM
CCCCCCCOc1ccc(-c2ccc(Nc3nc(N4CCOC(C5CC5)C4)nc4c3COC4)cc2)cc1 (centres unmarked) [Example 93]	1410 nM
C[C@@H]1CN(c2nc3c(c(Nc4ccc(-c5ccc(OCCCCCC(F)(F)F)cc5)cc4)n2)COC3)CCO1 [Example 94, 2-[(2R)-2-methylmorpholin-4-yl]-N-{4′-[(6,6,6-trifluorohexyl)oxy][1,1′-biphenyl]-4-yl}-5,7-dihydrofuro[3,4-d]pyrimidin-4-amine]	1300 nM
Cc1cc(-c2nc3c(c(Nc4ccc(C5CCCCC5)cc4)n2)COC3)ccn1 [Example 95, N-(4-cyclohexylphenyl)-2-(2-methylpyridin-4-yl)-5,7-dihydrofuro[3,4-d]pyrimidin-4-amine]	3220 nM
C[C@@H]1CN(c2nc(Nc3ccc(C4CCCCC4)cc3)c3cccnc3n2)CCO1 [Example 96, N-(4-cyclohexylphenyl)-2-[(2R)-2-methylmorpholin-4-yl]pyrido[2,3-d]pyrimidin-4-amine]	2920 nM
C[C@@H]1CN(c2nc(Nc3ccc(C4CCCCC4)cc3)c3cc(Br)cnc3n2)CCO1 [Example 97, 6-bromo-N-(4-cyclohexylphenyl)-2-[(2R)-2-methylmorpholin-4-yl]pyrido[2,3-d]pyrimidin-4-amine]	1350 nM
C1=C(c2nc(Nc3ccc(C4CCCCC4)cc3)c3cccnc3n2)CCOC1 [Example 98, N-(4-cyclohexylphenyl)-2-(3,6-dihydro-2H-pyran-4-yl)pyrido[2,3-d]pyrimidin-4-amine]	5530 nM
C[C@@H]1CN(c2nc(Nc3ccc(C4CCCCC4)cc3)c3ccc[n+]([O-])c3n2)CCO1 [Example 99, (R)-4-((4-cyclohexylphenyl)amino)-2-(2-methylmorpholino)pyrido [2,3-d]pyrimidine 8-oxide]	3790 nM
CCc1cnc2nc(N3CCO[C@H](C)C3)nc(Nc3ccc(C4CCCCC4)cc3)c2c1 [Example 100, (R)—N-(4-cyclohexylphenyl)-6-ethyl-2-(2-methylmorpholino) pyrido[2,3-d]pyrimidin-4-amine]	6300 nM
C[C@@H]1CN(c2nc(Nc3ccc(C4CCCCC4)cc3)c3cc(C#N)cnc3n2)CCO1 [Example 101, (R)-4-((4-cyclohexylphenyl)amino)-2-(2-methylmorpholino)pyrido[2,3-d]pyrimidine-6-carbonitrile]	1010 nM
COC(=O)c1cnc2nc(N3CCO[C@H](C)C3)nc(Nc3ccc(C4CCCCC4)cc3)c2c1 [Example 102, methyl (R)-4-((4-cyclohexylphenyl)amino)-2-(2-methylmorpholino) pyrido[2,3-d]pyrimidine-6-carboxylate]	700 nM
C[C@@H]1CN(c2nc(Nc3ccc(C4CCCCC4)cc3)c3cc(C(=O)O)cnc3n2)CCO1 [Example 103, (R)-4-((4-cyclohexylphenyl)amino)-2-(2-methylmorpholino)pyrido[2,3-d]pyrimidine-6-carboxylic acid]	3990 nM
C[C@@H]1CN(c2nc(Nc3ccc(C4CCCCC4)cc3)c3cc(C(N)=O)cnc3n2)CCO1 [Example 104, (R)-4-((4-cyclohexylphenyl)amino)-2-(2-methylmorpholino)pyrido[2,3-d]pyrimidine-6-carboxamide]	1630 nM
NC(=O)c1cnc2nc(N3CCOC(C4CC4)C3)nc(Nc3ccc(C4CCCCC4)cc3)c2c1 (centres unmarked) [Example 105, 4-((4-cyclohexylphenyl)amino)-2-(2-cyclopropylmorpholino) pyrido[2,3-d]pyrimidine-6-carboxamide]	1170 nM
COc1cnc2nc(N3CCO[C@H](C)C3)nc(Nc3ccc(C4CCCCC4)cc3)c2c1 [Example 106, (R)—N-(4-cyclohexylphenyl)-6-methoxy-2-(2-methylmorpholino) pyrido[2,3-d]pyrimidin-4-amine]	1850 nM
CC(=O)Nc1cnc2nc(N3CCO[C@H](C)C3)nc(Nc3ccc(C4CCCCC4)cc3)c2c1 [Example 107, (R)—N-(4-((4-cyclohexylphenyl)amino)-2-(2-methylmorpholino)pyrido[2,3-d]pyrimidin-6-yl)acetamide]	6300 nM
C[C@@H]1CN(c2nc(Nc3ccc(C4CCCCC4)cc3)c3cc(N)cnc3n2)CCO1 [Example 108, (R)—N4-(4-cyclohexylphenyl)-2-(2-methylmorpholino)pyrido[2,3-d]pyrimidine-4,6-diamine]	1970 nM
CC(C)N1Cc2nc(N3CCOCC3)nc(Nc3ccc(C4CCCCC4)cc3)c2C1 [Example 109, N-(4-cyclohexylphenyl)-6-isopropyl-2-morpholino-6,7-dihydro-5H-pyrrolo[3,4-d]pyrimidin-4-amine]	6340 nM
